Test results reported in ChEMBL document CHEMBL1201862, “PubChem BioAssay data set” (2004).
The source made the active and inactive calls.

Tests used:
Assay type in all cases: functional
[1] = (§1) Counterscreen for antagonists of the orexin 1 receptor (OX1R; HCRTR1): Fluorescence-based cell-based high throughput dose response assay to identify antagonists of the parental CHO cell line. [Related pubchem assays (depositor defined):AID434989, AID435008, AID463079, AID485270, AID492963, AID492964, AID492965, AID493232, AID504699, AID504701]
[2] = molecular target: T1, Orexin/Hypocretin receptor type 1 (Homo sapiens, UniProt O43613); test: Homogeneous Time Resolved Fluorescence (HTRF)-based cell-based high throughput dose response assay for antagonists of the orexin 1 receptor (OX1R; HCRTR1). [Related pubchem assays (depositor defined):AID434989, AID435008, AID463079, AID485270, AID492963, AID492964, AID492965, AID493232, AID504717, AID504718]
T1 sequence (O43613 whole entry): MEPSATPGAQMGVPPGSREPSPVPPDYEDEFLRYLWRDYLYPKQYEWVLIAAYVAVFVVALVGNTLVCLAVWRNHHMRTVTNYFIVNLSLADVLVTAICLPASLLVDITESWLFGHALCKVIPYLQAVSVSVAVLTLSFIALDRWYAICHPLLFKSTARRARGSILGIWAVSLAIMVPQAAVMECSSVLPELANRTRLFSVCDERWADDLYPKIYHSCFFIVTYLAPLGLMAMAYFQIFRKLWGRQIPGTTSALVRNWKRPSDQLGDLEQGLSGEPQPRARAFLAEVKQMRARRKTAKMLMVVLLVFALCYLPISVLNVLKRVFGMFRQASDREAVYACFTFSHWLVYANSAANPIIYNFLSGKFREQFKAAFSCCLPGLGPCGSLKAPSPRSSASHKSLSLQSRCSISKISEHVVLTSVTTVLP

CHO-K1 = test: as §1, with “Homogeneous time resolved fluorescence (HTRF)-based” for “Fluorescence-based”, “cell-based” for “cell-based high throughput”, “CHO-K1” for “CHO”; conditions: Cricetulus griseus;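 also: potency for inhibition of ATP-stimulated IP1 production as antagonists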
Orexin receptor type 2 [3] = molecular target: T2, Orexin receptor type 2 (Homo sapiens, UniProt O43614); test: Counterscreen assay for antagonists of the orexin 1 receptor (OX1R; HCRTR1): Fluorescence-based cell-based dose response assay for antagonists of the orexin 2 receptor (OX2R; HCRTR2), run by assay provider.
T2 sequence (O43614 whole entry): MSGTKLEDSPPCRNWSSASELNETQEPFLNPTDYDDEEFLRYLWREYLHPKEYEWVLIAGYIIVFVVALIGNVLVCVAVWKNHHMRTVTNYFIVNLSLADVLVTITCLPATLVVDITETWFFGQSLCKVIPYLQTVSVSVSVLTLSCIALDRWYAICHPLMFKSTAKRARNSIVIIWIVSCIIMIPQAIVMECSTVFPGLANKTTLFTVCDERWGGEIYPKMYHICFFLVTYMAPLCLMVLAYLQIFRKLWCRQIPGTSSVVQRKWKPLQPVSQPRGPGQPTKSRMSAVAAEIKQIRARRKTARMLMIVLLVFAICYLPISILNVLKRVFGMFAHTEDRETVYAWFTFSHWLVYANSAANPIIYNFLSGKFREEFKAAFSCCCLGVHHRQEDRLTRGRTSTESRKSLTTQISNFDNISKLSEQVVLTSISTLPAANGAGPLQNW

[4] = molecular target: T1, Orexin/Hypocretin receptor type 1; test: Fluorescence-based cell-based high throughput dose response assay for antagonists of the orexin 1 receptor (OX1R; HCRTR1). [Related pubchem assays (depositor defined):AID434989, AID435008, AID463079, AID485270, AID492963, AID492964, AID492965, AID493232, AID504717, AID504718]
Orexin receptor type 2 [5] = molecular target: T2, Orexin receptor type 2; test: Counterscreen assay for antagonists of the orexin 1 receptor (OX1R; HCRTR1): Homogeneous Time Resolved Fluorescence (HTRF)-based cell-based dose response assay for antagonists of the orexin 2 receptor (OX2R; HCRTR2), run by assay provider.
[6] = molecular target: T3, Corticotropin-releasing factor receptor 2/Corticotropin-releasing factor-binding protein (Homo sapiens, UniProt P24387+Q13324); test: activators of CRF receptor 2 with binding protein – uHTS hits, confirmation (AID 602473); conditions: read-out: EC50_Mean
T3 sequence (Q13324 whole entry): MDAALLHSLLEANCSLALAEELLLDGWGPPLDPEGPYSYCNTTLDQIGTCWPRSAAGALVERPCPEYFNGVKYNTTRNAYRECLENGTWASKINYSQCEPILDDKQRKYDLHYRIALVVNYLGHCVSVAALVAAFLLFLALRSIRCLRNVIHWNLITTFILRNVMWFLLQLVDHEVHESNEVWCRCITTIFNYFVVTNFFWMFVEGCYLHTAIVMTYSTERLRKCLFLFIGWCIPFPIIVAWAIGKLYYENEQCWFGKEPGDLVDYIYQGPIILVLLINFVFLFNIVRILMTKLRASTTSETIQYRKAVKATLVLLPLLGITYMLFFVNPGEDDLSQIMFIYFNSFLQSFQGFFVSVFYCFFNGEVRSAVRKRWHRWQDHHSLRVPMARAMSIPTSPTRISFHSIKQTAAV
T3 sequence (P24387 whole entry): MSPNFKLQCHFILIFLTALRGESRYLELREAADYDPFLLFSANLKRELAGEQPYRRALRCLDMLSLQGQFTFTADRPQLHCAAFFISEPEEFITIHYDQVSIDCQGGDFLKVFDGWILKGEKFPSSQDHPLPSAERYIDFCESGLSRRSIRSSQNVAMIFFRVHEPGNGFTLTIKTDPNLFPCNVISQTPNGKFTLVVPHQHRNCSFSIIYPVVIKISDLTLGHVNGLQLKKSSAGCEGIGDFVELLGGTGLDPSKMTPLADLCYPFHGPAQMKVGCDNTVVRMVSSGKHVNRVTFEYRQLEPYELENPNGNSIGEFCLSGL

[7] = molecular target: 26S proteasome non-ATPase regulatory subunit 14 (Homo sapiens, UniProt O00487); test: inhibition of proteasome subunit RPN11 – biochemical, fluorescence polarization, uHTS hits, confirmation (AID 602368)
Prothrombin = Prothrombin (Bos taurus, UniProt P00735); test: thrombin protease inhibitors – biochemical, fluorescence polarization, uHTS hits, dose response (AID 602369)
[8] = molecular target: 72 kDa type IV collagenase (Homo sapiens, UniProt P08253); test: Dose Response validation of uHTS RPN11 inhibitor hits using a MMP-2 Fluorescence assay.
[9] = viability of PTEN-deleted HCT116 cells – cell-based, HCT116 PTEN knockout, dose response (AID 1047);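 also: HCT116 colon tumor cells with PTEN knocked out; cells exposed to compound for 60 hours before readout; potency for loss of cell viability measured by luminescence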
[10] = viability of HCT116 lacking mutant beta-catenin – cell-based, human colon tumor, dose response (AID 1045);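 also: HCT116 colon tumor cells with beta catenin knocked out; cells exposed to compound for 60 hours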

Sequence of 72 kDa type IV collagenase (P08253 whole entry): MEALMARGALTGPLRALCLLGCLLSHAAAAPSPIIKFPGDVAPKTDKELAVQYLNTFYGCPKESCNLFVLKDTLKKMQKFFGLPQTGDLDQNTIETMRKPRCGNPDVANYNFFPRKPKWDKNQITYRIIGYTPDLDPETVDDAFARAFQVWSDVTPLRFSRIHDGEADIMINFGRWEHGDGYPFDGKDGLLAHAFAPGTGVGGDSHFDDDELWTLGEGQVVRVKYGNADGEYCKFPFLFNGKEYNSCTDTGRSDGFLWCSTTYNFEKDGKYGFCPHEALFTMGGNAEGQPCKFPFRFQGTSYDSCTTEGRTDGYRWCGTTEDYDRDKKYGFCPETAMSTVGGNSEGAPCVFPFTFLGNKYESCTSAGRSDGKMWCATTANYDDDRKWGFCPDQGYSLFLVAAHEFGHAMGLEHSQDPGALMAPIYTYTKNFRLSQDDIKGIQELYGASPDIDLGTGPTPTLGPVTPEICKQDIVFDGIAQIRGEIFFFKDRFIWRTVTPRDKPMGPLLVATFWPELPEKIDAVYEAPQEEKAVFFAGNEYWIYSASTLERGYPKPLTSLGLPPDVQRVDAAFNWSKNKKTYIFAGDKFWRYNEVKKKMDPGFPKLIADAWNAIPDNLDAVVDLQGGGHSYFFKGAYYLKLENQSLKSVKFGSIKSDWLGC
Sequence of 26S proteasome non-ATPase regulatory subunit 14 (O00487 whole entry): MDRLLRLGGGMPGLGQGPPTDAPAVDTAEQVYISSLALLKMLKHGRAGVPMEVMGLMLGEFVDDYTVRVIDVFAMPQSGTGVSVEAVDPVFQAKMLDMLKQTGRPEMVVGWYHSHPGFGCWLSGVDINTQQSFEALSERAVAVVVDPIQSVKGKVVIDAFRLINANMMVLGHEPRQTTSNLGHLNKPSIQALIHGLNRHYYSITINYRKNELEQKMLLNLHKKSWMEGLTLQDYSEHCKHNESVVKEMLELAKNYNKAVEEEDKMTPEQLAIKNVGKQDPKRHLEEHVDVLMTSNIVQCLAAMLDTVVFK

EC50 [6]	IC50 [7]	IC50 (Prothrombin)	IC50 [8]	SMILES	IC50 [1]	IC50 [2]	IC50 (CHO-K1)	IC50 (Orexin receptor type 2 [3])	IC50 [4]	IC50 (Orexin receptor type 2 [5])	EC50 [9]	EC50 [10]
–	–	–	–	Cc1noc(C)c1S(=O)(=O)Nc1ccc(O)c2c(=O)cc(-c3ccccc3Cl)oc12	> 49.7 µM (inactive)	0.151 µM (active)	> 66.2 µM (inactive)	16.8 µM (inactive)	23.6 µM (inactive)	5.63 µM (active)	–	–
–	–	–	–	CCn1c2ccccc2c2nc3ccccc3nc21	> 49.8 µM (inactive)	0.914 µM (active)	> 66.3 µM (inactive)	35.2 µM (inactive)	6.2 µM (active)	6.65 µM (active)	–	–
6.32 µM (active)	37.6 µM (active)	33.4 µM (active)	> 100 µM (inactive)	CCOc1cc(/C=C2\C(=N)N3N=C(CC(=O)N4CCCCC4)SC3=NC2=O)ccc1O	–	–	–	–	–	–	–	–
–	–	–	–	CC(NS(=O)(=O)c1ccc(OCC(=O)Nc2cccc([N+](=O)[O-])c2)cc1)c1ccccc1 (centres undefined)	> 49.8 µM (inactive)	0.688 µM (active)	> 66.2 µM (inactive)	> 88.8 µM (inactive)	13.6 µM (inactive)	> 50 µM (inactive)	18.4 µM (active)	18.2 µM (active)
